Earlier results in patent US6998494B2, “Preparation of trans-fused 3,3a,8,12b-tetrahydro-2h-dibenzo[3,4:6,7]cyclohepta[1,2-b]furan derivatives” (Janssen Pharmaceutica N.V., priority 2001, dated 2006).

Conditions: dose of 300 mg/kg

Compound: CNCC1CC2c3ccccc3Cc3ccccc3C2O1.O=C(O)C(=O)O (racemic) [(±)-3,3a,8,12b-tetrahydro-N-methyl-2H-dibenzo[3,4:6,7]-cyclohepta[1,2-b]furan-2-methanamine oxalic acid]
- activity as an antidepressant: inactive
